Measured values from PubChem BioAssay AID1259411 (Chemical Carcinogenesis Research Information System (CCRIS), 2018).
Activity calls are given as the source filed them. No rule for the calls is given here.

Tested on: rodent carcinogenicity bioassays, tumor incidence
Test: CCRIS carcinogenicity studies
Procedure, shortened: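 Archive of carcinogenicity, mutagenicity, tumor promotion and tumor inhibition results drawn from journals, NCI reports and other sources, expert-reviewed; covers 1985-2011 and is no longer updated.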

In the case of Cc1c2ccccc2c(C)c2c1ccc1ccccc12, the carcinogen call (Species: MOUSE, Strain/Sex: SWISS/MALE,FEMALE, Route: SUBCUTANEOUS, Dose: 30-40 UG IN 0.02 ML OF 1% AQ GEL, Tumor Site: Type of Lesion: LUNG, LYMPHATIC SYSTEM: MALIGNANT LYMPHOMA) is reported as “active; positive”, the carcinogen call (Species: RAT, Strain/Sex: ALBINO/MALE,FEMALE, Route: SUBCUTANEOUS, Dose: 5 MG IN 0.5 ML OLIVE OIL ONCE, Tumor Site: Type of Lesion: INJECTION SITE: RHABDOMYOSARCOMA) is reported as “active; positive” and the carcinogen call (Species: RAT, Strain/Sex: BIRMINGHAM/ MALE, FEMALE, Route: DERMAL, Dose: 0.5, 1.6% SOLN IN OLIVE OIL ONCE EVERY 2 WK, Tumor Site: Type of Lesion: INTEGUMENTARY SYSTEM (SKIN): SQUAMOUS PAPILLOMA, KERATOACANTHOMA, SQUAMOUS CELL CARCINOMA, MAMMARY GLAND) is reported as “active; positive”. For the same compound, the carcinogen call (Species: RAT, Strain/Sex: F344/FEMALE, 3 WKS OF AGE, Route: GAVAGE, Dose: 50 MG/KG ONCE (STUDY DURATION: 36 WKS), Tumor Site: Type of Lesion: MAMMARY GLAND: CARCINOMA) was 20% tumor incidence; 0.23 carcinomas/rat; immature rats less susceptible, the carcinogen call (Species: RAT, Strain/Sex: F344/FEMALE, 8 WKS OF AGE, Route: GAVAGE, Dose: 50 MG/KG ONCE (STUDY DURATION: 36 WKS), Tumor Site: Type of Lesion: MAMMARY GLAND: CARCINOMA) was 69% tumor incidence; 1.27 carcinomas/rat; mature rats more susceptible and the carcinogen call (Species: RAT, Strain/Sex: OUTBRED/ MALE, FEMALE, Route: DERMAL, Dose: 0.5, 1.6% SOLN IN OLIVE OIL ONCE EVERY 2 WK, Tumor Site: Type of Lesion: INTEGUMENTARY SYSTEM (SKIN): SQUAMOUS PAPILLOMA, KERATOACANTHOMA, SQUAMOUS CELL CARCINOMA, MAMMARY GLAND) was “active; positive”. The carcinogen call (Species: RAT, Strain/Sex: SPRAGUE-DAWLEY/FEMALE, Route: GAVAGE, Dose: 10 MG IN 0.5 ML SESAME OIL ONCE, Tumor Site: Type of Lesion: MAMMARY GLAND) was “active; positive”, the carcinogen call (Species: RAT, Strain/Sex: SPRAGUE-DAWLEY/FEMALE, Route: GAVAGE, Dose: 20 MG IN 1 ML SESAME OIL ONCE, Tumor Site: Type of Lesion: MAMMARY GLAND: FIBROADENOMA, CARCINOMA) was “active; positive” and the carcinogen call (Species: RAT, Strain/Sex: SPRAGUE-DAWLEY/FEMALE, Route: INJECTION, Dose: 0, 0.25, 1 UMOL PER MAMMARY GLAND (STUDY DURATION: 24 WK), Dose: 0, 0.25, 1 UMOL PER MAMMARY GLAND (STUDY DURATION: 24 WK), Tumor Site: Type of Lesion: MAMMARY GLAND: TUMOR) was “active; positive”. The carcinogen call (Species: RAT, Strain/Sex: SPRAGUE-DAWLEY/FEMALE, Route: INTRAVENOUS, Dose: 5 MG IN 1 ML LIPID EMULSION ONCE, Tumor Site: Type of Lesion: MAMMARY GLAND) was “active; positive”, the carcinogen call (Species: RAT, Strain/Sex: SPRAGUE-DAWLEY/FEMALE, Route: ORAL, Dose: 10 MG IN SESAME OIL 3 TIMES AT 14 D INTERVALS, Tumor Site: Type of Lesion: MAMMARY GLAND: ADENOMA, ADENOCARCINOMA) was “active; positive” and the carcinogen call (Species: RAT, Strain/Sex: SPRAGUE-DAWLEY/FEMALE, Route: ORAL, Dose: 20 MG IN SESAME OIL ONCE, Tumor Site: Type of Lesion: MAMMARY GLAND: ADENOMA, FIBROADENOMA, CARCINOMA, ADENOCARCINOMA) was “active; positive”. For the same compound, the carcinogen call (Species: RAT, Strain/Sex: SPRAGUE-DAWLEY/FEMALE, Route: SUBCUTANEOUS, Dose: 0, 2 UMOL IN 0.25 ML TRIOCTANOIN INTO LEFT HIND LEG AT ABOUT 40 D OF AGE FOLLOWED BY SECOND DOSE 6 D LATER (STUDY DURATI, Tumor Site: Type of Lesion: INJECTION SITE: SARCOMA) was “active; positive”, the carcinogen call (Species: RAT, Strain/Sex: SPRAGUE-DAWLEY/FEMALE, Route: SUBCUTANEOUS, Dose: 0, 2 UMOL IN 0.25 ML TRIOCTANOIN ONCE INTO LEFT HIND LEG AT ABOUT 40 D OF AGE (STUDY DURATION: 16 MO), Tumor Site: Type of Lesion: INJECTION SITE: SARCOMA) was “active; positive” and the carcinogen call (Species: RAT, Strain/Sex: STRAIN-CB/FEMALE, Route: SUBCUTANEOUS, Dose: 0.25 ML OF 1% SOLN IN DMSO ONCE, Tumor Site: Type of Lesion: INJECTION SITE: SPINDLE CELL SARCOMA) was “active; positive”. The carcinogen call (Species: RAT, Strain/Sex: WISTAR/FEMALE, Route: GAVAGE, Dose: 0.4 ML OF 0.5% SUNFLOWER SEED OIL SOLN 2/WK FOR 4.5 MO (TOTAL DOSE: 68 MG), Tumor Site: Type of Lesion: HEMATOPOIETIC SYSTEM (LEUKEMIA)) was “active; positive”, the carcinogen call (Species: RAT, Strain/Sex: WISTAR/FEMALE, Route: INJECTION, Dose: 0, 0.05 ML OF A 1% SOLUTION IN ACETONE INJECTED INTO SUBMANDIBULAR SALIVARY GLANDS AFTER EXCISION OF A SMALL PORTION OF, Tumor Site: Type of Lesion: SALIVARY GLAND: ADENOCARCINOMA) was “active; positive” and the carcinogen call (Species: RAT, Strain/Sex: WISTAR/FEMALE, Route: INTRADUCTAL, Dose: 0, 1 MG IN 0.05 ML OF SESAME OIL INJECTED INTO MAIN MAMMARY DUCT ON THE 10TH PUERPERAL DAY (STUDY DURATION: 20 WK), Tumor Site: Type of Lesion: MAMMARY GLAND: DUCTAL CARCINOMA) was “active; positive”. For the same compound, the carcinogen call (Species: RAT, Strain/Sex: WISTAR/FEMALE, Route: ORAL, Dose: 10 MG IN SESAME OIL 3 TIMES AT 14 D INTERVALS, Tumor Site: Type of Lesion: MAMMARY GLAND: ADENOMA, ADENOCARCINOMA) was “active; positive”, the carcinogen call (Species: RAT, Strain/Sex: WISTAR/FURTH/FEMALE, Route: OVARIAN IMPLANTATION OF CARCINOGEN-COATED SUTURE AT 7 WKS OF AGE, Dose: 200 UG IN SUTURE ONCE (STUDY DURATION: 1 YR), Tumor Site: Type of Lesion: OVARY: ADENOCARCINOMA, 77%) was “active; positive” and the carcinogen call (Species: RAT, Strain/Sex: WISTAR/MALE, Route: INJECTION, Dose: 0, 0.05 ML OF A 1% SOLUTION IN ACETONE INJECTED INTO SUBMANDIBULAR SALIVARY GLANDS AFTER EXCISION OF A SMALL PORTION OF, Tumor Site: Type of Lesion: SALIVARY GLAND: FIBROSARCOMA) was “active; positive”. For the same compound, the carcinogen call (Species: RAT, Strain/Sex: ZUCKER/FEMALE, LEAN, Route: ORAL (GAVAGE), Dose: 65 MG/KG ONCE AT 50 D OF AGE (STUDY DURATION: 139 D), Tumor Site: Type of Lesion: MAMMARY: TUMOR 32%, LATENCY 86 D) was “active; positive; lean rats had longer latent period and lower tumor incidence than obes”, the carcinogen call (Species: RAT, Strain/Sex: ZUCKER/FEMALE, OBESE, Route: ORAL (GAVAGE), Dose: 65 MG/KG ONCE AT 50 D OF AGE (STUDY DURATION: 139 D), Tumor Site: Type of Lesion: MAMMARY: TUMOR 68%, LATENCY 49 D) was “active; positive; obese rats had higher tumor incidence and shorter latent period than l” and the carcinogen call (Species: Rat, Strain/Sex: Fischer 344/Female, Route: Direct application to ovary, Dose: 100 ug in sesame oil, once, study duration 5 months) was “inactive; negative”. For the same compound, the carcinogen call (Species: SHREW, Strain/Sex: JAPANESE/FEMALE, Route: INTRAPERITONEAL, Dose: 0, 1.25, 2.5 MG 1/WK FOR 4 WK (STUDY DURATION: 50 WK), Dose: 0, 1.25, 2.5 MG 1/WK FOR 4 WK (STUDY DURATION: 50 WK), Tumor Site: Type of Lesion: HEMATOPOIETIC SYSTEM: LEUKEMIA) was “active; positive”, the carcinogen call (Species: SHREW, Strain/Sex: JAPANESE/FEMALE, Route: INTRAPERITONEAL, Dose: 0, 1.25, 2.5 MG 1/WK FOR 8 WK (STUDY DURATION: 50 WK), Dose: 0, 1.25, 2.5 MG 1/WK FOR 8 WK (STUDY DURATION: 50 WK), Tumor Site: Type of Lesion: HEMATOPOIETIC SYSTEM: LEUKEMIA) was “active; positive” and the carcinogen call (Species: SHREW, Strain/Sex: JAPANESE/FEMALE, Route: SUBCUTANEOUS, Dose: 0, 1 MG INTO RIGHT INGUINAL SUBCUTANEOUS TISSUE OVER THE MAMMARY GLAND ONCE (STUDY DURATION: 50 WK), Tumor Site: Type of Lesion: INJECTION SITE: SARCOMA) was “active; positive”.
